Here are results for 5 molecules from publication PMC9936538, “Structure–Activity Relationship of N-Ethyl-Hexedrone Analogues: Role of the α-Carbon Side-Chain Length in the Mechanism of Action, Cytotoxicity, and Behavioral Effects in Mice” (ACS Chemical Neuroscience, 2023).

Experiment [1] has as its target T1, hDAT (Homo sapiens, UniProt Q01959).
T1 construct: expressed in transfected cells; host or cells: HEK293
As to the kind of experiment: Monoamine uptake inhibition, [3H]MPP+ uptake at hDAT in transfected HEK293 cells. The format is cell-based. The note with it: for hDAT/hSERT inhibition ratio: 1/DAT IC50:1/SERT IC50, calculated with the original raw data. On the procedure:
Human embryonic kidney cells (HEK293) stably transfected with the human DAT and SERT were used for both the uptake inhibition and transporter binding assays.[6] Cells were cultured in DMEM supplemented with heat-inactivated 10% fetal bovine serum (FBS), […], and 100 U/mL penicillin at 37 °C in a 5% CO2 humidified atmosphere. Geneticin (G418; 50 μg/mL) was added to maintain the selection process. Upon approximately 80% confluence, cells were washed with 5 mL of phosphate-buffered saline (PBS) and 1 mL of trypsin/EDTA was added. After 3 min, 9 mL of DMEM was added to stop cell trypsinization. If necessary, centrifugation was performed to pellet the cells. Cells were then resuspended, counted, and seeded onto poly-D-lysine coated (24 h/prior to the experiment) 96-well plates at a density of 0.36 million cells per well for the uptake inhibition assays.
Assays were performed as previously described.[8] On the test day, the medium was removed from the cell culture 96-well plates and immediately replaced with 200 μL of Krebs-HEPES-buffer (KHB; 10 mM HEPES, 120 mM NaCl, 3 mM KCl, 2 mM CaCl2·2H2O, 2 mM MgCl2·6H2O supplemented with 20 mM D-glucose; pH 7.3). To ensure equilibrated conditions, cells were incubated with different concentrations of the drugs in KHB at a final volume of 50 μL/well for 5 min (preincubation). The preincubation solution was removed, and cells were incubated with the tritiated compounds, 0.02 μM [^3H]MPP^+ for hDAT and 0.1 μM [^3H]5-HT for hSERT, together with various concentrations of the test drugs in KHB. The uptake incubation times were 3 min for hDAT and 1 min for hSERT. The reaction was stopped by rapid removal of the incubation solution and washout with ice-cold KHB. Cells were lysed with 1% sodium dodecyl sulfate, and lysates were subsequently transferred to vials containing scintillation fluid. Radioactivity was quantified with a beta-scintillation counter (PerkinElmer, Waltham, MA, USA). The uptake in the absence of the test drugs was normalized to 100%, and the uptake in the presence of various concentrations of cathinones was expressed as a percentage thereof. […] Four independent experiments carried out on triplicates were performed.
(§1) For in vitro assays, data were normalized with 100% defined as the mean of the technical replicates in the control group and expressed as mean ± SEM. Nonlinear regression was used to fit the different competition curves. Data were plotted and best fitted to a sigmoidal dose–response curve from which an IC50 or LC50 value was obtained. Transporter ratios were calculated as (1/DAT IC50: 1/SERT IC50). […] The Cheng–Prusoff equation was used to calculate Ki (affinity): Ki = EC50/(1 + [radioligand concentration/Kd]).[65] The sample size for behavioral experiments was determined using GPower software. One-way or two-way ANOVA, and subsequent Tukey’s posthoc test, conducted only if F was significant, was used to determine the effects of cathinones on cytotoxicity, HLA, OF, and CPP experiments. The α error probability was set at 0.05 (p < 0.05). The exact size group for the behavioral experiments is shown in the corresponding figure legends. All statistic calculations were carried out using GraphPad Prism (GraphPad software, San Diego, CA, USA).

Experiment [2] addresses T1, hDAT. As to the kind of experiment: Transporter binding, [3H]WIN 35,428 binding at hDAT (HEK293 membranes). How it is done: (§2) For membrane preparation, cells were harvested from 80 to 90% confluent dishes. HEK293 cells were washed with ice-cold phosphate-buffered saline (PBS), mechanically detached from the dish using a plastic scraper, and pelleted by centrifugation (400g for 10 min at 4 °C). The pellet was resuspended in HME buffer (20 mM HEPES NaOH, 1 mM EDTA, 2 mM MgCl2; pH 7.4), subjected to two freeze–thaw cycles in liquid nitrogen and homogenized through sonication at 4 °C. Membranes were then collected by centrifugation (40,000g for 30 min at 4 °C) and resuspended in an appropriate volume of HME buffer. The different membrane preparations aliquots were kept at −80 °C. Protein concentration was determined using the Bio-Rad Protein Reagent (Bio-Rad Laboratories, Hercules, CA).
(§3) Binding assays were performed as described.[6] […] This nonspecific binding also allows subtracting from the total binding values of the binding to other components such as membrane lipids or microfiber filters. Incubation was performed for 1 h at 22 °C. Binding reactions are stopped by rapid filtration of the membranes through GF/C glass microfiber filters presoaked with 0.5% polyethyleneimine and rapid washing with ice-cold wash buffer (120 mM NaCl, 2 mM MgCl2, 10 mM Tris, and 100 μM ZnCl2 for hDAT, and […], 2 mM MgCl2, and 10 mM Tris, for hSERT). Thereafter, the filters are placed into vials, a scintillation cocktail is added and trapped radioactivity is quantified by liquid scintillation counting. Specific binding of each drug to the transporter was defined as the difference between total binding (binding buffer in absence of the drug) and nonspecific binding. For each cathinone, four independent experiments carried out on duplicates were performed.
as §1

In the next experiment the target is T2, hSERT (Homo sapiens, UniProt P31645).
T2 construct: expressed in transfected cells; host or cells: HEK293
As to the kind of experiment: Transporter binding, [3H]imipramine binding at hSERT (HEK293 membranes). On the procedure:
as §2, §3, §1

The next experiment relates to Swiss CD-1 mice. As to the kind of experiment: Conditioned place preference (CPP). It counts as in vivo. To be noted: for CPP preference score vs saline: 3 mg/kg i.p. How it is done:
Male Swiss CD-1 mice (Janvier, Le Genest, France) weighing 30–35 g (6–8 weeks old), housed in temperature-controlled conditions (22 ± 1 °C) under a 12 h light/dark cycle and with free access to food and drinking water (standard laboratory diet, Panlab SL, Barcelona, Spain), were randomly assigned to an experimental group. Efforts were made to minimize animal use and suffering.
The potential of the studied compounds to induce reward was determined using a place conditioning paradigm, as described.[6] For this experiment, an apparatus with two distinct compartments, with differences in tactile and visual cues, communicated by a central corridor, has been used. In brief, CPP was performed in three phases: preconditioning test, conditioning, and postconditioning test. During the preconditioning phase (day 0), mice were placed in the middle of the corridor and had free access to both compartments for 15 min. The time spent in each compartment was recorded and monitored using a specific tracking software (Smart 3.0 Panlab, Barcelona, Spain). […] In the alternative session, mice received a saline i.p. injection and were placed for 20 min in the other compartment. Mice in the control group received a saline injection in every session. The compartment and session in which mice received the drug were randomized. On the test day (postconditioning phase), the same conditions as in the preconditioning phase were applied. A preference score was calculated as the difference between the time spent in the drug-paired compartment in the postconditioning test minus the time spent in the preconditioning phase.

pIC50, pKi: −log10 of the molar value. Where only a bound is given, the exact number is not on record here.

T1 sequence (Q01959 whole entry): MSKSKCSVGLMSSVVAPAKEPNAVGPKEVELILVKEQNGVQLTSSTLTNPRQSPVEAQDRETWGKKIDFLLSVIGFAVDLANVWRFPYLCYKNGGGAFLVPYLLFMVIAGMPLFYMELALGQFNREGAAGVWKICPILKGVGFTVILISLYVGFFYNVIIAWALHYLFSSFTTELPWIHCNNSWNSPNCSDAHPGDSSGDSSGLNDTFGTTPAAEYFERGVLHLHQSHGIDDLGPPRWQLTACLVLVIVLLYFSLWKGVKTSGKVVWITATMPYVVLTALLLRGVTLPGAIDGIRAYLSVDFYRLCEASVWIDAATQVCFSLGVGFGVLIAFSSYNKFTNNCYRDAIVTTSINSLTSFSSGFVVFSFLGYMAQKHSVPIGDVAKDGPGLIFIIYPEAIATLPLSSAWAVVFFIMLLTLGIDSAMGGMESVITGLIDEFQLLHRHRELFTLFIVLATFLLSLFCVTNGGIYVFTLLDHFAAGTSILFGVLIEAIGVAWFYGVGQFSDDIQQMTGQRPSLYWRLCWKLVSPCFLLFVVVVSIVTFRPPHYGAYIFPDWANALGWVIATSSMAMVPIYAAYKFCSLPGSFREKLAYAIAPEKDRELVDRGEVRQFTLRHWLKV
T2 sequence (P31645 whole entry): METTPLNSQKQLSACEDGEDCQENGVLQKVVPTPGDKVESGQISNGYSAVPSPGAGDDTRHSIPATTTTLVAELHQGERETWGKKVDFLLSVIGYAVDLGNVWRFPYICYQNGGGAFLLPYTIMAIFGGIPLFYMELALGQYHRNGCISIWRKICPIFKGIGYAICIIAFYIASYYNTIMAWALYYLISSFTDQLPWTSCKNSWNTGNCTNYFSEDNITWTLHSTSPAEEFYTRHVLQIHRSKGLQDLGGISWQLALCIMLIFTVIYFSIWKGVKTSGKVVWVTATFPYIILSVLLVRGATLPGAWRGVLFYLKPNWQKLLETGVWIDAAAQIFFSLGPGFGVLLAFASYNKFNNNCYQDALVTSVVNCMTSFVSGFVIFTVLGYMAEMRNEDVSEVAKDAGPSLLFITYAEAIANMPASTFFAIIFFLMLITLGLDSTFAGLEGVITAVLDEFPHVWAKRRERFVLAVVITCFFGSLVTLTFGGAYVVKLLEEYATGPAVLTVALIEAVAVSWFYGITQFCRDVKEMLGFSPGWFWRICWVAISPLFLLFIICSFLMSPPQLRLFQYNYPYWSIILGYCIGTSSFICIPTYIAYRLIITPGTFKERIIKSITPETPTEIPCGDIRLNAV

For orientation: pIC50 means the IC50 on a negative log10 scale, so that one unit is a factor of ten. Read a high pIC50 as a low IC50. For orientation: pKi means −log10 of the Ki, conventionally taken in molar units. Take `CCNC(CC)C(=O)c1ccccc1` (stereo not drawn) [NEB, N-ethyl-buphedrone]: on hDAT [1], the pIC50 was 6.52 and the hDAT/hSERT inhibition ratio is recorded as 168. Besides, on hDAT [2], the pKi is 6.70. Moreover, at hSERT, the pKi was 4.05. Further, in the experiment on Swiss CD-1 mice, the “CPP preference score vs saline” value is “significant preference score”. For the same molecule, the “CPP rewarding effect vs saline” value in the experiment with Swiss CD-1 mice (10 mg/kg i.p.) is on record as “produce rewarding effects”.
The molecule `CCNC(C)C(=O)c1ccccc1` (stereo not drawn) [NEC, N-ethyl-cathinone] showed a pIC50 at hDAT [1] of 5.84. Also, the hDAT/hSERT inhibition ratio at hDAT [1] was 157. Besides, the “reduction of potency inhibiting DA uptake compared with α-PVP” value at hDAT [1] (vs α-PVP) is given as roughly 10 fold. Also, the pKi on hDAT [2] is 5.63; on hSERT, less than 4.00. Besides, in the experiment on Swiss CD-1 mice, the “CPP preference score vs saline” value was “significant preference score”. The “CPP rewarding effect vs saline” value in the experiment with Swiss CD-1 mice (10 mg/kg i.p.) is “produce rewarding effects”.
For `CCCCC(NCC)C(=O)c1ccccc1` (stereo not drawn) [NEH, N-ethyl-hexedrone], on hDAT [1], the pIC50 is 7.14 and the hDAT/hSERT inhibition ratio was 1457. Moreover, on hDAT [1] (vs NEC), the “potency in inhibiting DA uptake compared with NEC” value is recorded as roughly 20 fold. This molecule also showed a negative-log Ki (pKi) at hDAT [2] of 6.92. The molecule further showed a pKi on hSERT of 4.44. For the same molecule, in the experiment on Swiss CD-1 mice (10 mg/kg i.p.), the “CPP rewarding effect vs saline” value is reported as “produce rewarding effects”.
The molecule `CCCCCC(NCC)C(=O)c1ccccc1` (stereo not drawn) [NEHP, N-ethyl-heptedrone] had a pIC50 on hDAT [1] of 6.60. Further, the hDAT/hSERT inhibition ratio on hDAT [1] is listed as 426. Besides, the pKi on hDAT [2] is 6.97; at hSERT, 4.39. Besides, the “CPP rewarding effect vs saline” value in the experiment with Swiss CD-1 mice (any dose tested (3, 10, 30 mg/kg i.p.)) was “did not induce a significant rewarding effect”.
In the case of `CCCC(NCC)C(=O)c1ccccc1` (stereo not drawn) [NEPD, N-ethyl-pentedrone], on hDAT [1], the pIC50 was 7.04 and the hDAT/hSERT inhibition ratio was 844. This molecule gave a pKi on hDAT [2] of 7.38. This molecule gave a pKi on hSERT of 4.61. Moreover, the “CPP preference score vs saline” value in the experiment with Swiss CD-1 mice is reported as “significant preference score”. In addition, the “CPP rewarding effect vs saline” value in the experiment on Swiss CD-1 mice (10 mg/kg i.p.) was “produce rewarding effects”.
